# Assay results: patent US8808666B2, “Peptides that specifically target amyloid deposits” (University of Tennessee Research Foundation, priority 2010, dated 2014)
# Entries after “also recorded” stand apart in the source; their conditions may differ.
# Key:
# AA amyloid = biological target: T1, AA amyloid (Mus musculus, UniProt P05367); assay: In vivo evaluation of radiolabeled peptides in TRIAD AA mouse model: SPECT imaging, biodistribution, autoradiography; conditions: for autoradiography: binding to AA amyloid in the necrotic renal papillae in vivo: mouse; for SPECT imaging of 125I-labeled fusion peptides in AA mice versus WT: mice with visceral AA amyloidosis
# T1 construct: from tissue; host or cells: living TRIAD mice with systemic peripheral AA amyloidosis
# T1 sequence (P05367 20-95 limits assumed): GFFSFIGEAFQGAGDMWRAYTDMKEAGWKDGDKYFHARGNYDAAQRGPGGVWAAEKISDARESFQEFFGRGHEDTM
# Procedure: Based on the data obtained with protamines, in the Examples below, peptides that are positively charged are selected. They were labeled with radioiodine (I-125 and I-123) or technetium (Tc-99m) tested for in vivo binding to systemic AA amyloid deposits in the transgenic rapidly inducible amyloid disease (TRIAD) murine model by microSPECT or microPET imaging. The tissue biodistribution of each were assessed by gamma counting and the micro-distribution determined by autoradiography. Further, preliminary examinations were performed of the binding of biotinylated forms of these peptides with formalin-fixed, paraffin-embedded, amyloid-containing tissue sections from patients with AL κ and λ amyloidosis, Alzheimer's disease, Transthyretin amyloidsis (ATTR), serum amyloid protein A amyloidosis (AA), fibrinogen α amyloidosis (AFibα), calcifying epithelium odontogenic tumor amyloid (AODAM), galectin 7 amyloidosis (AGal), and Lect2 amyloidosis (ALECT2).
# Two methods of radiolabeling the peptides were employed. For radioiodination, the direct oxidative iodination of tyrosyl groups on the peptides was employed. This method yields product with high specific activity (˜10-20 μCi/μg) of pure ^125I-labeled peptide. The second method involves radiolabeling the peptides with ^99mTc according to the method of Tran et al. (Bioconjugate Chem, 2007, 18, 549-558). The quality of each radiolabeled peptide was assessed by SDS-PAGE (15% poly-acrylamide) analyzed with quantitative phosphor imaging.
# Each of the radiolabeled peptides were evaluated for its specific reactivity with amyloids in vivo, using the TRIAD AA mouse model, by using SPECT imaging, biodistribution measurements, and autoradiography. The reactivity of the radiolabeled peptides were assessed in transgenic rapidly inducible amyloid disease (TRIAD) mice with systemic peripheral AA amyloidosis as well as control (amyloid free) mice, by imaging the mice. The reactivity of the peptides were evaluated at 1 hour, 2 hours, 4 hours, 8 hours, 12 hours, or 24 hours post injection of the radiolabeled peptides. […] The other peptides also bound amyloids, but not as well as these.
# In a dual-energy imaging experiment, peptide p31 was labeled with Tc^99m and SAP labeled with I^125 and the binding of each radiotracer was examined by using dual-energy microSPECT imaging in an individual TRIAD mouse with AA amyloidosis.
# To examine the kinetics of the reactivity of peptides p48, p31, and p31-GGGY, dynamic PET imaging of I^124-labeled peptides p48, p31, p31-GGGY, and p50 (as a control) was performed in TRIAD mice with AA amyloidosis or wild type mice without amyloid. Finally, in a preliminary study, the binding of I^125-labeled SAP and Tc^99m-labeled peptide p31 was compared in the same TRIAD mouse with AA amyloidosis.
# [1] = test system: ApoA2c amyloid-laden tissues; assay: Ex vivo amyloid binding assay with homogenized tissue of ApoA2c mice; design: species or system mouse; conditions: for binding to ApoA2c amyloid-laden tissues in vitro: 125I-labeled, 1 h incubation, gamma counting
# Procedure: (§1) The novel peptide, p5R+14, was radiolabeled with ^125I via an oxidation reaction with chloramine T. The labeled peptide was separated from free iodide using size exclusion chromatography on a Sephadex G25 column. For ex vivo amyloid binding assays, the ^125I-labeled p5 and p5R+14 peptides were added to 50 μL of homogenized tissue derived from wild type or amyloid laden ApoA2c mice. After a 1 h incubation, the amount of bound peptide (% of total) was assessed by gamma counting following centrifugation. For in vivo imaging, peptides p5 and p5R+14 were radiolabeled as above, and the radiopurities were determined by using SDS-PAGE and phosphor imaging.
# ApoA2c amyloid = assay: In vivo SPECT/CT imaging, biodistribution and micro-autoradiography in ApoA2c mice; design: species or system mouse; conditions: for SPECT/CT uptake in amyloid-laden tissues: 2 or 4 h pi; for biodistribution, tissue-to-muscle ratios, ApoA2c versus WT tissues: mouse, in vivo
# Procedure: as §1
# Approximately 200 μCi was injected iv in the lateral tail vein of ApoA2c mice (n=3). SPECT/CT images were acquired using the Inveon Tri-Modality System at 2 or 4 h pi. Organs were harvested and biodistribution of radiotracers was determined and recorded as % injected dose/gram. For comparisons between the peptides, tissue to muscle ratios were used. The tissues were then fixed in formalin, paraffin embedded, sectioned and exposed to photographic emulsion for ˜3 days.
# [2] = test system: amyloid deposits in tissues from patients with light chain (AL) amyloidosis, Alzheimer's disease and other forms of amyloidosis; assay: Biotinylated peptide overlay on formalin-fixed paraffin embedded patient tissues; type: binding, human; conditions: formalin-fixed paraffin embedded tissue sections
# Procedure: The reactivity of biotinylated peptide p31 with amyloid deposits in formalin-fixed paraffin embedded tissues from patients with light chain (AL) amyloidosis, or Alzheimer's disease, and other forms of amyloidosis was examined.
# (§2) To catalog the range of amyloids that p31 and other peptides may bind, biotinylated peptides using the biotinyl-maleimide adduct which interacts specifically with the solitary Cys residue in the “leader” sequence were prepared. The peptides were overlaid onto formalin-fixed 6 μm-thick amyloid-containing tissue sections, incubated overnight and then the distribution visualized using standard immunohistochemical techniques.
# ACEOT amyloid (ODAM) = assay: Biotinylated peptide overlay on amyloid-containing tissue sections; type: binding, human
# Procedure: as §2
# [3] = test system: AFibα amyloid (Fibrinogen α); assay: as above; type: binding, human
# Procedure: as §2
# [4] = test system: ALκ amyloid (κ light chains); assay: as above; type: binding, human
# Procedure: as §2
# [5] = test system: ALλ amyloid (λ light chains); assay: as above; type: binding, human; conditions: overnight incubation, 6 μm-thick sections
# Procedure: as §2
# [6] = test system: AA amyloid (Serum amyloid protein A); assay: as above; type: binding; conditions: AA (human and canine)
# Procedure: as §2
# [7] = biological target: T2, AGal amyloid (Galectin 7) (Homo sapiens, UniProt P47929); assay: as above; type: binding
# T2 construct: from tissue; host or cells: formalin-fixed patient tissue sections
# T2 sequence (P47929 whole entry): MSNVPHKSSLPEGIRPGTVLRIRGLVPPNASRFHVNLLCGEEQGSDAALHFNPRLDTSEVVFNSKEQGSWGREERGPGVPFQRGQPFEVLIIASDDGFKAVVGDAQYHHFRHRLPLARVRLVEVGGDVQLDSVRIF
# Procedure: as §2
# ALECT2 amyloid (Lectin2) = biological target: T3, ALECT2 amyloid (Lectin2) (Homo sapiens, UniProt O14960); assay: as above; type: binding
# T3 construct: from tissue; host or cells: formalin-fixed patient tissue sections
# T3 sequence (O14960 19-151): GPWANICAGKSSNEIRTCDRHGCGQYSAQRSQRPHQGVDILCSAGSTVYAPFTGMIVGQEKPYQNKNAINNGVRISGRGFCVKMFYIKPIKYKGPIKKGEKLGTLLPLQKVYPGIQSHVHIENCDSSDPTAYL
# Procedure: as §2
# [8] = biological target: T4, ATTR amyloid (Transthyretin) (Homo sapiens, UniProt P02766); assay: as above; type: binding
# T4 construct: amyloid-containing tissue sections from patients with AL κ and λ amyloidosis, Alzheimer's disease, Transthyretin amyloidsis (ATTR); from tissue; host or cells: formalin-fixed patient tissue sections
# Procedure: as §2
# [9] = biological target: T5, Aβ amyloid (Amyloid β peptide in Alzheimer's disease) (Homo sapiens, UniProt P05067); assay: as above; type: binding
# T5 construct: Amyloid β peptide in Alzheimer's; from tissue; host or cells: formalin-fixed tissue sections from Alzheimer's disease patients
# Procedure: as §2
# AA amyloid deposits = biological target: T6, AA amyloid deposits (Mus musculus, UniProt P05367)
# T6 sequence (P05367 20-95 limits assumed): T1 sequence (P05367 20-95 limits assumed)
# Procedure: Following radioiodination, ^125I-labeled protamine (^125I-protamine) was administered to animals with severe systemic AA amyloidosis mice or to amyloid-free mice and allowed to circulate for 1 hour, 2 hours, 4 hours, 8 hours or 24 hours. At each time point high-resolution microSPECT/CT images were acquired and the tissue distribution of the radioactivity determined by gamma counting. Finally, 6 μm-thick tissue sections were prepared for autoradiography and histological evaluation of the micro-distribution of the radiolabeled peptides and amyloid deposits, respectively.
substance,measurement,setting,value
"SAP: Serum amyloid P component, the gold standard amyloid imaging agent; decameric, Mw ~250 kD [reference compound]",autoradiography: binding to AA amyloid in the necrotic renal papillae in vivo,AA amyloid,does not
"YGRKKRRQRRRCGGYSKAQKAQAKQAKQAQKAQKAQAKQAKQ [TAT-p31, fusion of p31 with cell penetrating peptide]",SPECT imaging of 125I-labeled fusion peptides in AA mice versus WT,AA amyloid,retained by the amyloid deposits in the liver spleen and kidneys
GGGYSRAQRAQARQARQAQRAQRAQARQARQAQRAQRAQARQARA [p31RGGGY + 14],binding to ApoA2c amyloid-laden tissues in vitro,[1],able to bind
same,amount bound compared between p5R+14 and p5,"[1]; tissues of ApoA2c-amyloid mouse, listed as p5R+14",bound in greater amounts to all tissue samples as compared to p5; also recorded: higher binding in every tissue of interest
same,micro-autoradiography of tissues,ApoA2c amyloid; ApoA2c mice,localized to amyloid within the tissues
same,SPECT/CT uptake in amyloid-laden tissues,"ApoA2c amyloid; ApoA2c mice, listed as 125I-p5R+14","uptake of ^125I-p5R+14 in amyloid-laden tissues such as the heart, liver, spleen and intestines; also recorded: cardiac uptake is not part of blood pool clearance"
same,SPECT/CT uptake in amyloid-laden tissues,"ApoA2c amyloid; ApoA2c mice, listed as p5R+14","bound cardiac amyloid deposits as well as those in the liver, spleen and intestines"
same,"biodistribution, tissue-to-muscle ratios, ApoA2c versus WT tissues",ApoA2c amyloid,clearly more p5R+14 binding to the diseased tissues
GGGYSKAQKAQAKQAKQAQKAQKAQAKQAKQ [p31-GGGY],binding to ApoA2c amyloid-laden tissues in vitro,[1],able to bind
same,uptake of radiotracer in splenic amyloid in vivo,ApoA2c amyloid; ApoA2c mice,no uptake
same,SPECT/CT uptake in amyloid-laden tissues,ApoA2c amyloid; ApoA2c mice,lack of positive amyloid uptake
same,micro-autoradiography of tissues,"ApoA2c amyloid; ApoA2c mice, listed as 125I-p5",only slight uptake
same,micro-autoradiography of tissues,"ApoA2c amyloid; ApoA2c mice, listed as p5",scant amounts
same,"biodistribution, tissue-to-muscle ratios, ApoA2c versus WT tissues",ApoA2c amyloid,not significantly higher
CGGYSKAQKAQAKQAKQAQKAQKAQAKQAKQ (Heparin-binding peptide) [p31],SPECT imaging of AA amyloid compared to SAP,"AA amyloid; 99mTc-labeled peptide, 125I-labeled SAP, same mouse",as effective as SAP; also recorded: the same as that for SAP
same,SPECT distribution in AA mouse compared to WT control,AA amyloid; 125I-labeled,totally different
same,retention on AA amyloid in vivo (SPECT images and biodistribution),AA amyloid; 24 h post-injection,remained bound to the AA amyloid in vivo
same,"specific amyloid binding, ranking from in vivo imaging studies","AA amyloid; TRIAD AA mouse model, 1-24 hours post injection",best specific amyloid binding reagents
same,autoradiography: reactivity with murine pancreatic AA amyloid,AA amyloid; compared to SAP,greater reactivity with murine pancreatic AA amyloid as compared to SAP
same,biodistribution: amount of amyloid bound compared to SAP,AA amyloid; mice,binds more amyloid in vivo
same,autoradiography: binding to AA amyloid in the necrotic renal papillae in vivo,AA amyloid,binds AA amyloid in the necrotic renal papillae
same,binding of biotinylated peptide to tissue amyloid,[2],bound tissue amyloid from these patients with great affinity; also recorded: selectively bound to the amyloids in the tissue section
same,binding to amyloid in tissue sections,ACEOT amyloid (ODAM),specifically binds significantly
same,binding to amyloid in tissue sections,[3],specifically binds significantly
same,binding to amyloid in tissue sections,[4],specifically binds significantly
same,binding to amyloid in tissue sections,[5],specifically binds significantly
same,binding to amyloid in tissue sections,[6],specifically binds significantly
same,binding to amyloid in tissue sections,[7],specifically binds significantly
same,binding to amyloid in tissue sections,ALECT2 amyloid (Lectin2),specifically binds significantly
same,binding to amyloid in tissue sections,[8],specifically binds significantly
same,binding to amyloid in tissue sections,[9],specifically binds significantly
GGYSKAQKAQAKQAKQAQKAQKAQAKQAKQGGTFFYGGSRGKRNNFKTEEY [WAL14465],SPECT imaging of 125I-labeled fusion peptides in AA mice versus WT,AA amyloid,retained by the amyloid deposits in the liver spleen and kidneys
protamine,microSPECT distribution in AA mice,AA amyloid deposits; AA mice,"sequestered by amyloid deposits in the liver, kidney, pancreas and spleen"
same,micro-autoradiography association with amyloid,"AA amyloid deposits; AA mice, notably liver",preferentially associated with the AA amyloid
same,accumulation in organs or tissues of amyloid-free mice,AA amyloid deposits; amyloid-free mice,little or no specific accumulation
same,"calculated tissue:muscle ratios, mice with AA versus amyloid-free mice","AA amyloid deposits; liver, kidney, pancreas, spleen, stomach, gamma counting",at least 2 fold
same,fate of radiolabel in control mice,"AA amyloid deposits; mouse, in vivo",rapidly dehalogenated
"RRLSYSRRRFCGGYSKAQKAQAKQA KQAQKAQKAQAKQAKQ (RRLSYSRRRFCGGYSKAQKAQAKQAKQAQKAQKAQAKQAKQ) [Syb3-p31, fusion of p31 with cell penetrating peptide]",SPECT imaging of 125I-labeled fusion peptides in AA mice versus WT,AA amyloid,retained by the amyloid deposits in the liver spleen and kidneys
